This is an account of results in patent publication US9663526B2, “Aminopyrimidinyl compounds” (Pfizer Inc., priority 2014, dated 2017).

In assay [1] the target is recombinant human kinase domain of JAK1 (Homo sapiens (Human), UniProt P23458). As to the kind of experiment: JAK Caliper enzyme assay at 1 mM ATP (JAK1).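 Also: microfluidic mobility-shift readout of synthetic fluorescent peptide phosphorylation, percent product converted from peak height, inhibition relative to DMSO-only wells as uninhibited baseline, room temperature incubation.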 The format is biochemical. The conditions noted are these: 1 mM ATP; read-out: IC50 (nM) JAK1.
Assay [2] addresses recombinant human kinase domain of JAK2 (Homo sapiens (Human), UniProt O60674). As to the kind of experiment: JAK Caliper enzyme assay at 1 mM ATP (JAK2).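 Also: microfluidic mobility-shift read-out of fluorescent synthetic peptide phosphorylation, percent product converted from peak heights, room temperature, DMSO-only wells as uninhibited baseline, inhibition curve fit.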 The format is biochemical.
Assay [3] concerns the target recombinant human kinase domain of JAK3 (Homo sapiens (Human), UniProt P52333). As to the kind of experiment: JAK Caliper enzyme assay at 1 mM ATP (JAK3).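 Also: microfluidic mobility-shift readout of synthetic peptide phosphorylation, percent product converted from peak heights, normalized to DMSO-only wells as uninhibited baseline, room temperature incubation.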 In kind it is biochemical. The conditions noted are these: 1 mM ATP; read-out: IC50 (nM) JAK3.
In assay [4] the target is recombinant human kinase domain of TYK2 (Homo sapiens (Human), UniProt P29597). Description: JAK Caliper enzyme assay at 1 mM ATP (TYK2).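 Also: microfluidic mobility-shift readout of synthetic peptide phosphorylation by TYK2, tuned to 20–30% conversion at room temperature, reaction stopped with EDTA, DMSO-only wells as uninhibited baseline.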 The conditions noted are these: 1 mM ATP; read-out: IC50 (nM) TYK2. The format is biochemical.
Assay [5] concerns interferon alpha signalling (TYK2 and JAK1), STAT3 phosphorylation. Description: Human whole blood INFα induced STAT3 phosphorylation assay.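 Also: flow cytometry with anti-pSTAT3 staining, signal as percent-positive × mean fluorescence, baseline from unstimulated wells, 11-point dilution series, IC50 as inhibition of pSTAT3.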 The format is cell-based. Conditions: compound 60 minutes at 37° C., IFNα 5000 U/ml for 15 minutes, pSTAT3 in lymphocyte population by flow cytometry, read-out: HWB IFN alpha IC50. (Flow cytometry measures light scatter and fluorescence of single cells or particles in a stream.)

recombinant human kinase domain of TYK2, sequence (P29597 897-1176): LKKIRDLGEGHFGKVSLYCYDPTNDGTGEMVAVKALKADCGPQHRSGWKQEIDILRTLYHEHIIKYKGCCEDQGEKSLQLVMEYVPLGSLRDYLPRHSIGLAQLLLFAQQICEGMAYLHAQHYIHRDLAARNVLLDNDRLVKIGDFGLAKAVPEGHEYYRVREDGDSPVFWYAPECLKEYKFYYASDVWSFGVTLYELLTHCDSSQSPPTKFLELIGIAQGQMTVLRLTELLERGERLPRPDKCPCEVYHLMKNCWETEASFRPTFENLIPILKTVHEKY
recombinant human kinase domain of JAK1, sequence (P23458 875-1153): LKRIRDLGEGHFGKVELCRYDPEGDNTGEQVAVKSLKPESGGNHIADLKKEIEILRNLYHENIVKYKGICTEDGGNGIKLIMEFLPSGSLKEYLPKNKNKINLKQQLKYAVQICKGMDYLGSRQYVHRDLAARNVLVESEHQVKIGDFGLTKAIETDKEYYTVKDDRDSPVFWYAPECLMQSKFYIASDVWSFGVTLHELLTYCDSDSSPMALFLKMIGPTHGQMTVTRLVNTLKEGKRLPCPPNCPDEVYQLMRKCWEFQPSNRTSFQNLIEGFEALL
recombinant human kinase domain of JAK3, sequence (P52333 822-1111): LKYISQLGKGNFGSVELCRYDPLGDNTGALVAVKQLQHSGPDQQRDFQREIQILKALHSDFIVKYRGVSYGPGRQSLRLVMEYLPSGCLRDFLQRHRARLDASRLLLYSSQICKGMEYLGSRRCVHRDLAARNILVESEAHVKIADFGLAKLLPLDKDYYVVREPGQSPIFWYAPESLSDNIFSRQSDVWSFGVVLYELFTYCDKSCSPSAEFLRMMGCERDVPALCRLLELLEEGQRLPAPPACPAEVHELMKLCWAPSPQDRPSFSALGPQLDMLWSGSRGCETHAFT
recombinant human kinase domain of JAK2, sequence (O60674 849-1124): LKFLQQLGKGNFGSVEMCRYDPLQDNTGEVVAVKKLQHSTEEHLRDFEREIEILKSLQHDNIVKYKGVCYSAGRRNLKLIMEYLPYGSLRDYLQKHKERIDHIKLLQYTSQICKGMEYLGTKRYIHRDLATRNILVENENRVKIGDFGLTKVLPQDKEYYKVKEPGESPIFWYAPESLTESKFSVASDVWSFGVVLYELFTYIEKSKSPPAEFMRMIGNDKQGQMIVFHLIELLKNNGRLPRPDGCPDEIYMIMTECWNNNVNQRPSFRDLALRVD

`CCNC(=O)N1[C@@H]2CC[C@H]1CN(c1ccnc(Nc3cnsc3)n1)C2` [Example 74, (1R,5S)—N-ethyl-3-[2-(1,2-thiazol-4-ylamino)pyrimidin-4-yl]-3,8-diazabicyclo[3.2.1 l]octane-8-carboxamide]: the IC50 is 67 nM in assay [1]; 691 nM in assay [2]; > 10000 nM in assay [3]; 65 nM in assay [4]; 213 nM in assay [5].

Consider `Cc1cc(Nc2nccc(N3C[C@H]4CC[C@@H](C3)N4C(=O)[C@@H]3CC3(F)F)n2)cnc1C(N)=O` [Example 35, 5-({4-[(1R,5S)-8-{[(1S)-2,2-difluorocyclopropyl]carbonyl}-3,8-diazabicyclo[3.2.1]oct-3-yl]pyrimidin-2-yl}amino)-3-methylpyridine-2-carboxamide], for which the IC50 in assay [1] was 170 nM; in assay [2], 337 nM; in assay [3], > 10000 nM; in assay [5] it was 90 nM.

Regarding `CNC(=O)c1ncc(Nc2nccc(N3C[C@H]4CC[C@@H](C3)N4C(=O)NCC#N)n2)cc1C` [Example 90, (1R,5S)—N-(cyanomethyl)-3-(2-{[5-methyl-6-(methylcarbamoyl)pyridin-3-yl]amino}pyrimidin-4-yl)-3,8-diazabicyclo[3.2.1]octane-8-carboxamide], the IC50 in assay [1] turned out to be 17 nM; in assay [3], 4170 nM; in assay [5], 247 nM.

`Cc1cnc(Nc2ccc(OCCO)nc2)nc1N1C[C@H]2[C@@H](C)[C@@]2(NC(=O)[C@H]2C[C@@H]2C#N)C1` [Example 98, (1S,2S)-2-cyano-N-[(1S,5R,6R)-3-(2-{[6-(2-hydroxyethoxy)pyridin-3-yl]amino}-5-methylpyrimidin-4-yl)-6-methyl-3-azabicyclo[3.1.0]hex-1-yl]cyclopropanecarboxamide]: the IC50 in assay [1] came out at 13 nM; in assay [2], 147 nM; in assay [3], 2600 nM; in assay [5] it was 246 nM.

In the case of `Cc1cc(Nc2nccc(N3C[C@H]4CC[C@@H](C3)N4C(=O)C3CC3)n2)cnc1C(N)=O` [Example 15, 5-({4-[(1R,5S)-8-(cyclopropylcarbonyl)-3,8-diazabicyclo[3.2.1]oct-3-yl]pyrimidin-2-yl}amino)-3-methylpyridine-2-carboxamide], the IC50 in assay [5] amounted to 534 nM.

Regarding `O=C([C@@H]1CC1(F)F)N1[C@@H]2CC[C@H]1CN(c1ccnc(Nc3cn[nH]c3)n1)C2` [Example 51, ((1R,5S)-3-(2-((1H-pyrazol-4-yl)amino)pyrimidin-4-yl)-3,8-diazabicyclo[3.2.1]octan-8-yl)((S)-2,2-difluorocyclopropyl)methanone], the IC50 in assay [1] worked out at 13 nM; in assay [2], 97 nM; in assay [3], 8610 nM; in assay [5] it was 20 nM.

Take `CNC(=O)c1ncc(Nc2nccc(N3C[C@H]4CC[C@@H](C3)N4C(=O)[C@@H]3C[C@H]3F)n2)cc1C` [Example 45, 5-({4-[(1R,5S)-8-{[(1S,2R)-2-fluorocyclopropyl]carbonyl}-3,8-diazabicyclo[3.2.1]oct-3-yl]pyrimidin-2-yl}amino)-N,3-dimethylpyridine-2-carboxamide]: the half-inhibitory concentration (IC50) in assay [1] is 46 nM; in assay [2], 100 nM; in assay [3], 7400 nM; in assay [5] it was 110 nM.

Turning to `CNC(=O)c1ncc(Nc2nccc(N3C[C@H]4CC[C@@H](C3)N4C(=O)[C@@H]3C[C@H]3C#N)n2)cc1C` [Example 32, 5-({4-[(1R,5S)-8-{[(1R,2R)-2-cyanocyclopropyl]carbonyl}-3,8-diazabicyclo[3.2.1]oct-3-yl]pyrimidin-2-yl}amino)-N,3-dimethylpyridine-2-carboxamide], the IC50 is 140 nM in assay [2], > 10000 nM in assay [3] and 115 nM in assay [5].

Take `CCNC(=O)N1[C@@H]2CC[C@H]1CN(c1ccnc(Nc3cn[nH]c3)n1)C2` [Example 5, (1R,5S)—N-ethyl-3-[2-(1H-pyrazol-4-ylamino)pyrimidin-4-yl]-3,8-diazabicyclo[3.2.1]octane-8-carboxamide]: the IC50 in assay [2] is 477 nM; in assay [3], > 10000 nM; in assay [5] it was 105 nM.

For `CCn1cc(Nc2nccc(N3C[C@H]4CC[C@@H](C3)N4C(=O)[C@@H]3C[C@H]3C#N)n2)cn1` [Example 24, (1R,2R)-2-{[(1R,5S)-3-{2-[(1-ethyl-1H-pyrazol-4-yl)amino]pyrimidin-4-yl}-3,8-diazabicyclo[3.2.1]oct-8-yl]carbonyl}cyclopropanecarbonitrile], the IC50 in assay [1] was determined as 13 nM; in assay [2], 67 nM; in assay [3] it was 4990 nM; in assay [5], 43 nM.

Turning to `CCNC(=O)c1ncc(Nc2nccc(N3C[C@H]4CC[C@@H](C3)N4C(=O)C3CC3)n2)cc1C` [Example 14, 5-({4-[(1R,5S)-8-(cyclopropylcarbonyl)-3,8-diazabicyclo[3.2.1]oct-3-yl]pyrimidin-2-yl}amino)-N-ethyl-3-methylpyridine-2-carboxamide], the IC50 was > 10000 nM in assay [3], 79 nM in assay [4] and 287 nM in assay [5].

With `O=C([C@@H]1CC1(F)F)N1[C@@H]2CC[C@H]1CN(c1ccnc(Nc3cnc(N4CC[C@@H](O)C4)c(F)c3)n1)C2` [Example 21, [(1S)-2,2-difluorocyclopropyl]{(1R,5S)-3-[2-({5-fluoro-6-[(3R)-3-hydroxypyrrolidin-1-yl]pyridin-3-yl}amino)pyrimidin-4-yl]-3,8-diazabicyclo[3.2.1]oct-8-yl}methanone], the IC50 in assay [5] worked out at 731 nM.

On to `Cn1cc(Nc2ncc(F)c(N3C[C@@]4(CO)C[C@@]4(NC(=O)[C@@H]4CC4(F)F)C3)n2)cn1` [Example 109, (1S)-2,2-difluoro-N-[(1S,5S)-3-{5-fluoro-2-[(1-methyl-1H-pyrazol-4-yl)amino]pyrimidin-4-yl}-5-(hydroxymethyl)-3-azabicyclo[3.1.0]hex-1-yl]cyclopropanecarboxamide], for which the IC50 in assay [1] was 211 nM; in assay [3], > 10000 nM; in assay [4], 51 nM; in assay [5] it was 507 nM.

In the case of `Cn1cc(Nc2nccc(N3C[C@H]4CC[C@@H](C3)N4C(=O)[C@@H]3CC3(F)F)n2)cn1` [Example 7, [(1S)-2,2-difluorocyclopropyl][(1R,5S)-3-{2-[(1-methyl-1H-pyrazol-4-yl)amino]pyrimidin-4-yl}-3,8-diazabicyclo[3.2.1]oct-8-yl]methanone], the IC50 in assay [5] came out at 30 nM.

On to `O=C([C@@H]1CC1(F)F)N1[C@@H]2CC[C@H]1CN(c1ccnc(Nc3cnc(OCCO)c(Cl)c3)n1)C2` [Example 23, [(1R,5S)-3-(2-{[5-chloro-6-(2-hydroxyethoxy)pyridin-3-yl]amino}pyrimidin-4-yl)-3,8-diazabicyclo[3.2.1]oct-8-yl][(1S)-2,2-difluorocyclopropyl]methanone], for which the IC50 in assay [5] was 428 nM.

As to `Cn1cc(Nc2nccc(N3C[C@H]4CC[C@@H](C3)N4Cc3ccns3)n2)cn1` [Example 55, N-(1-methyl-1H-pyrazol-4-yl)-4-[(1R,5S)-8-(1,2-thiazol-5-ylmethyl)-3,8-diazabicyclo[3.2.1]oct-3-yl]pyrimidin-2-amine], the IC50 in assay [1] is 35 nM; in assay [2] it was 221 nM; in assay [3], 8620 nM; in assay [5] it was 168 nM.

Take `Cn1cc(Nc2nccc(N3C[C@H]4CC[C@@H](C3)N4Cc3cnoc3)n2)cn1` [Example 58, N-(1-methyl-1H-pyrazol-4-yl)-4-[(1R,5S)-8-(1,2-oxazol-4-ylmethyl)-3,8-diazabicyclo[3.2.1]oct-3-yl]pyrimidin-2-amine]: the half-inhibitory concentration (IC50) in assay [1] is 267 nM; in assay [3], > 10000 nM; in assay [4], 73 nM; in assay [5], 158 nM.

Consider `Cn1cc(Nc2nccc(N3C[C@H]4CC[C@@H](C3)N4C(=O)[C@H]3C[C@H]3C#N)n2)cn1` [Example 38, (1R,2S)-2-{[(1R,5S)-3-{2-[(1-methyl-1H-pyrazol-4-yl)amino]pyrimidin-4-yl}-3,8-diazabicyclo[3.2.1]oct-8-yl]carbonyl}cyclopropanecarbonitrile], for which the IC50 is 707 nM in assay [1], 2330 nM in assay [2], > 10000 nM in assay [3] and 427 nM in assay [4].

As for `CNC(=O)c1ncc(Nc2nccc(N3C[C@H]4CC[C@@H](C3)N4C(=O)[C@H]3C[C@@H]3F)n2)cc1C` [Example 44, 5-({4-[(1R,5S)-8-{[(1R,2S)-2-fluorocyclopropyl]carbonyl}-3,8-diazabicyclo[3.2.1]oct-3-yl]pyrimidin-2-yl}amino)-N,3-dimethylpyridine-2-carboxamide], the half-inhibitory concentration (IC50) was 475 nM in assay [1], 854 nM in assay [2], > 10000 nM in assay [3] and 562 nM in assay [5].

Take `Cn1cc(Nc2nccc(N3C[C@H]4CC[C@@H](C3)N4C3(CC#N)CN(S(C)(=O)=O)C3)n2)cn1` [Example 83, {3-[(1R,5S)-3-{2-[(1-methyl-1H-pyrazol-4-yl)amino]pyrimidin-4-yl}-3,8-diazabicyclo[3.2.1]oct-8-yl]-1-(methylsulfonyl)azetidin-3-yl}acetonitrile]: the results for the IC50 in assay [3] and in assay [5] were 1240 nM and 85 nM, respectively.

On to `Cn1cc(Nc2nccc(N3C[C@H]4CC[C@@H](C3)N4S(C)(=O)=O)n2)cn1` [Example 77, N-(1-methyl-1H-pyrazol-4-yl)-4-[(1R,5S)-8-(methylsulfonyl)-3,8-diazabicyclo[3.2.1]oct-3-yl]pyrimidin-2-amine], for which the IC50 in assay [1] was 380 nM; in assay [2] it was 653 nM; in assay [3], > 10000 nM; in assay [4], 256 nM.

For orientation: IC50 means the concentration needed to halve the response being measured.
